The results in this text go back to US20230322761A1, “DEGRADATION OF BRUTON'S TYROSINE KINASE (BTK) BY CONJUGATION OF BTK INHIBITORS WITH E3 LIGASE LIGAND AND METHODS OF USE” (BEIGENE, LTD., priority 2020, published 2023).

Each structure is given as a SMILES string.

This assay deals with T1, BTK (Homo sapiens, UniProt Q06187).
T1 construct: endogenous in cells; host or cells: TMD-8 cells
T1 sequence (Q06187 whole entry): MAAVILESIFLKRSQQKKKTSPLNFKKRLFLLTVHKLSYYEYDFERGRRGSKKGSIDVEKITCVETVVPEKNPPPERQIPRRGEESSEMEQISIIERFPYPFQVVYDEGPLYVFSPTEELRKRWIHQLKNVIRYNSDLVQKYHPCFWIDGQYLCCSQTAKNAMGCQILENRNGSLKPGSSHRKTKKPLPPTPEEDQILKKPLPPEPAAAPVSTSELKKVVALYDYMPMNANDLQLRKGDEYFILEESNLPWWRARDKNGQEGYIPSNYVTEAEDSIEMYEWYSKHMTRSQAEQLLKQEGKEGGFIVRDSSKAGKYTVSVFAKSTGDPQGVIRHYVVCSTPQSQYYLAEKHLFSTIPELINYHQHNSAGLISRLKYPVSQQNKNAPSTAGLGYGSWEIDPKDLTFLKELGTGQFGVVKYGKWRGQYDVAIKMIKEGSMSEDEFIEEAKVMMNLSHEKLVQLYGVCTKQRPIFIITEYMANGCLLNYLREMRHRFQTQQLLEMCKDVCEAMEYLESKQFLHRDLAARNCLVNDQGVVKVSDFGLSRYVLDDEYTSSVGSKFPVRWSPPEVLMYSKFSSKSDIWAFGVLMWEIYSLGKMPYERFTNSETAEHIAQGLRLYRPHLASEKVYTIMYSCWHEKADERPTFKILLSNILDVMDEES
In words: BTK degradation in TMD-8 cells, HTRF assay after 6 h treatment. The format is cell-based. The note with it: IC50 (DC50) of BTK degradation. Summed up:
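TMD-8 cells treated for 6 h with 8 compound doses in 6-fold dilution steps from a 1 mM 500× DMSO stock (0.2% DMSO), then lysed 30 min at room temperature. BTK in lysate detected by HTRF (665/620 nm) after overnight antibody incubation; DC50 from four-parameter curve fit.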
(In general: In TR-FRET formats the signal depends on donor and acceptor labels being close together.)
As to `Cc1cc(-c2n[nH]c3ncc(-c4ccc(N5CCN(CC(F)(F)c6ccc(C7CCC(=O)NC7=O)cn6)CC5)cc4)cc23)ccc1[C@@H](C)NC(=O)c1noc(C(C)(C)C)n1` (stereo partly drawn) [Example 193, 5-(tert-butyl)-N-((1R)-1-(4-(5-(4-(4-(2-(5-(2,6-dioxopiperidin-3-yl)pyridin-2-yl)-2,2-difluoroethyl)piperazin-1-yl)phenyl)-1H-pyrazolo[3,4-b]pyridin-3-yl)-2-methylphenyl)ethyl)-1,2,4-oxadiazole-3-carboxamide], it took 3.06 nM to reach half-maximal degradation (DC50). In other words, the single-digit nanomolar range. The figure for `Cc1cc(-c2n[nH]c3ncc(-c4ccc(N5CCN(CCc6ccc(N7CCC(=O)NC7=O)cn6)CC5)cc4)cc23)ccc1[C@@H](C)NC(=O)c1noc(C(C)(C)C)n1` [Example 194, (R)-5-(tert-butyl)-N-(1-(4-(5-(4-(4-(2-(5-(2,4-dioxotetrahydropyrimidin-1(2H)-yl)pyridin-2-yl)ethyl)piperazin-1-yl)phenyl)-1H-pyrazolo[3,4-b]pyridin-3-yl)-2-methylphenyl)ethyl)-1,2,4-oxadiazole-3-carboxamide] is 1.69 nM; for `COc1nc(CCN2CCN(c3ccc(-c4cnc5[nH]nc(-c6ccc([C@@H](C)NC(=O)c7nc(C(C)(C)C)no7)c(C)c6)c5c4)cc3)CC2)ccc1C1CCC(=O)NC1=O` (stereo partly drawn) [Example 195, 3-(tert-butyl)-N-((1R)-1-(4-(5-(4-(4-(2-(5-(2,6-dioxopiperidin-3-yl)-6-methoxypyridin-2-yl)ethyl)piperazin-1-yl)phenyl)-1H-pyrazolo[3,4-b]pyridin-3-yl)-2-methylphenyl)ethyl)-1,2,4-oxadiazole-5-carboxamide] it is 6.13 nM. For `Cc1cc(-c2n[nH]c3ncc(-c4ccc(N5CCN(CCn6nc(C)c(C7CCC(=O)NC7=O)c6C)CC5)cc4)cc23)ccc1[C@@H](C)NC(=O)c1nc(C(C)(C)C)no1` (stereo partly drawn) [Example 196, 3-(tert-butyl)-N-((1R)-1-(4-(5-(4-(4-(2-(4-(2,6-dioxopiperidin-3-yl)-3,5-dimethyl-1H-pyrazol-1-yl)ethyl)piperazin-1-yl)phenyl)-1H-pyrazolo[3,4-b]pyridin-3-yl)-2-methylphenyl)ethyl)-1,2,4-oxadiazole-5-carboxamide], the DC50 (commonly the midpoint of the concentration-degradation curve) is 1.05 nM.

As for `Cc1cc(-c2n[nH]c3ncc(-c4ccc(C5CCN(C6CC(c7ccc(C8CCC(=O)NC8=O)cc7)C6)CC5)nc4)cc23)ccc1[C@@H](C)NC(=O)c1noc(C(C)(C)C)n1` (stereo partly drawn) [Example 197, 5-(tert-butyl)-N-((1R)-1-(4-(5-(6-(1-(3-(4-(2,6-dioxopiperidin-3-yl)phenyl)cyclobutyl)piperidin-4-yl)pyridin-3-yl)-1H-pyrazolo[3,4-b]pyridin-3-yl)-2-methylphenyl)ethyl)-1,2,4-oxadiazole-3-carboxamide], half-maximal degradation (DC50) was put at 1.08 nM. Take `Cc1cc(-c2n[nH]c3ncc(-c4ccc(N5CCC(COc6ccc(OC7CCC(=O)NC7=O)cc6)CC5)cc4)cc23)ccc1[C@@H](C)NC(=O)c1noc(C(C)(C)C)n1` (stereo partly drawn) [Example 198, 5-(tert-butyl)-N-((1R)-1-(4-(5-(4-(4-((4-((2,6-dioxopiperidin-3-yl)oxy)phenoxy)methyl)piperidin-1-yl)phenyl)-1H-pyrazolo[3,4-b]pyridin-3-yl)-2-methylphenyl)ethyl)-1,2,4-oxadiazole-3-carboxamide]: the DC50 was 91.4 nM. Regarding `Cc1cc(-c2n[nH]c3ncc(-c4ccc(N5CCN(CCc6ccc(C7CCC(=O)NC7=O)c(F)c6)CC5)nc4)cc23)ccc1[C@@H](C)NC(=O)c1noc(C(C)(C)C)n1` (stereo partly drawn) [Example 199, 5-(tert-butyl)-N-((1R)-1-(4-(5-(6-(4-(4-(2,6-dioxopiperidin-3-yl)-3-fluorophenethyl)piperazin-1-yl)pyridin-3-yl)-1H-pyrazolo[3,4-b]pyridin-3-yl)-2-methylphenyl)ethyl)-1,2,4-oxadiazole-3-carboxamide], the DC50 was found to be 5.09 nM.

For `Cc1cc(-c2n[nH]c3ncc(-c4ccc(C5(O)CCN(CC6CCN(c7ccc(N8CCC(=O)NC8=O)cc7)CC6)CC5)cc4)cc23)ccc1[C@@H](C)NC(=O)c1nc(C(C)(C)C)no1` [Example 201, (R)-3-(tert-butyl)-N-(1-(4-(5-(4-(1-((1-(4-(2,4-dioxotetrahydropyrimidin-1(2H)-yl)phenyl)piperidin-4-yl)methyl)-4-hydroxypiperidin-4-yl)phenyl)-1H-pyrazolo[3,4-b]pyridin-3-yl)-2-methylphenyl)ethyl)-1,2,4-oxadiazole-5-carboxamide], the DC50 came out at 1.79 nM.

Consider `Cc1cc(-c2n[nH]c3ncc(-c4ccc(N5CCCN(CC6CCN(c7ccc(N8CCC(=O)NC8=O)cc7)CC6)CC5)cc4)cc23)ccc1[C@@H](C)NC(=O)c1nc(C(C)(C)C)no1` [Example 202, (R)-3-(tert-butyl)-N-(1-(4-(5-(4-(4-((1-(4-(2,4-dioxotetrahydropyrimidin-1(2H)-yl)phenyl)piperidin-4-yl)methyl)-1,4-diazepan-1-yl)phenyl)-1H-pyrazolo[3,4-b]pyridin-3-yl)-2-methylphenyl)ethyl)-1,2,4-oxadiazole-5-carboxamide], for which half-maximal degradation (DC50) was put at 9.04 nM. On to `Cc1cc(-c2n[nH]c3ncc(-c4ccc(C5(F)CCN(CC6CCN(c7ccc(N8CCC(=O)NC8=O)cc7)CC6)CC5)cc4)cc23)ccc1[C@@H](C)NC(=O)c1nc(C(C)(C)C)no1` [Example 203, (R)-3-(tert-butyl)-N-(1-(4-(5-(4-(1-((1-(4-(2,4-dioxotetrahydropyrimidin-1(2H)-yl)phenyl)piperidin-4-yl)methyl)-4-fluoropiperidin-4-yl)phenyl)-1H-pyrazolo[3,4-b]pyridin-3-yl)-2-methylphenyl)ethyl)-1,2,4-oxadiazole-5-carboxamide], for which the 50% degradation concentration (DC50) was found to be 5.27 nM. This DC50 is about 1.7-fold lower than that of the compound before. Turning to `Cc1cc(-c2n[nH]c3ncc(-c4ccc(C5(O)CCN(CC6CCN(c7ccc(N8CCC(=O)NC8=O)cc7)CC6)CC5)cn4)cc23)ccc1[C@@H](C)NC(=O)c1nc(C(C)(C)C)no1` [Example 204, (R)-3-(tert-butyl)-N-(1-(4-(5-(5-(1-((1-(4-(2,4-dioxotetrahydropyrimidin-1(2H)-yl)phenyl)piperidin-4-yl)methyl)-4-hydroxypiperidin-4-yl)pyridin-2-yl)-1H-pyrazolo[3,4-b]pyridin-3-yl)-2-methylphenyl)ethyl)-1,2,4-oxadiazole-5-carboxamide], the DC50 worked out at 2.02 nM. The compound `Cc1cc(-c2n[nH]c3ncc(-c4ccc(C5(F)CCN(CC6CCN(c7ccc(N8CCC(=O)NC8=O)cc7)CC6)CC5)cn4)cc23)ccc1[C@@H](C)NC(=O)c1nc(C(C)(C)C)no1` [Example 205, (R)-3-(tert-butyl)-N-(1-(4-(5-(5-(1-((1-(4-(2,4-dioxotetrahydropyrimidin-1(2H)-yl)phenyl)piperidin-4-yl)methyl)-4-fluoropiperidin-4-yl)pyridin-2-yl)-1H-pyrazolo[3,4-b]pyridin-3-yl)-2-methylphenyl)ethyl)-1,2,4-oxadiazole-5-carboxamide] registered a DC50 of 0.736 nM.

`Cc1cc(-c2n[nH]c3ncc(-c4ccc(N5CCN(CCc6ccc7c(c6)C[C@]6(CC(=O)NC6=O)C7)CC5)cc4)cc23)ccc1[C@@H](C)NC(=O)c1nc(C(C)(C)C)no1` [Example 206, 3-(tert-butyl)-N—((R)-1-(4-(5-(4-(4-(2-((S)-2′,5′-dioxo-1,3-dihydrospiro[indene-2,3′-pyrrolidin]-5-yl)ethyl)piperazin-1-yl)phenyl)-1H-pyrazolo[3,4-b]pyridin-3-yl)-2-methylphenyl)ethyl)-1,2,4-oxadiazole-5-carboxamide] yielded a DC50 above 2000 nM.

`Cc1cc(-c2n[nH]c3ncc(-c4ccc(N5CCN(CCc6ccc7c(c6)C[C@@]6(CC(=O)NC6=O)C7)CC5)cc4)cc23)ccc1[C@@H](C)NC(=O)c1nc(C(C)(C)C)no1` [Example 207, 3-(tert-butyl)-N—((R)-1-(4-(5-(4-(4-(2-((R)-2′,5′-dioxo-1,3-dihydrospiro[indene-2,3′-pyrrolidin]-5-yl)ethyl)piperazin-1-yl)phenyl)-1H-pyrazolo[3,4-b]pyridin-3-yl)-2-methylphenyl)ethyl)-1,2,4-oxadiazole-5-carboxamide] came in with a DC50 of 54 nM. Turning to `Cc1cc(-c2n[nH]c3ncc(-c4ccc(N5CCN(C6CC(c7ccc([C@@H]8CCC(=O)NC8=O)cc7)C6)CC5)cc4)cc23)ccc1[C@@H](C)NC(=O)c1noc(C(C)(C)C)n1` (stereo partly drawn) [Example 208, 5-(tert-butyl)-N—((R)-1-(4-(5-(4-(4-((1S,3s)-3-(4-((R)-2,6-dioxopiperidin-3-yl)phenyl)cyclobutyl)piperazin-1-yl)phenyl)-1H-pyrazolo[3,4-b]pyridin-3-yl)-2-methylphenyl)ethyl)-1,2,4-oxadiazole-3-carboxamide], the DC50 was 2.08 nM. As for `Cc1cc(-c2n[nH]c3ncc(-c4ccc(N5CCN(C6CC(c7ccc([C@@H]8CCC(=O)NC8=O)cc7)C6)CC5)cc4)cc23)ccc1[C@@H](C)NC(=O)c1noc(C(C)(C)C)n1` (stereo partly drawn) [Example 209, 5-(tert-butyl)-N—((R)-1-(4-(5-(4-(4-((1R,3s)-3-(4-((S)-2,6-dioxopiperidin-3-yl)phenyl)cyclobutyl)piperazin-1-yl)phenyl)-1H-pyrazolo[3,4-b]pyridin-3-yl)-2-methylphenyl)ethyl)-1,2,4-oxadiazole-3-carboxamide], half-maximal degradation (DC50) was put at 13.6 nM. The compound `Cc1cc(-c2n[nH]c3ncc(-c4ccc(C5(C)CCN(CC6CCN(c7ccc(N8CCC(=O)NC8=O)cc7)CC6)CC5)cc4)cc23)ccc1[C@@H](C)NC(=O)c1noc(C(C)(C)C)n1` [Example 210, (R)-5-(tert-butyl)-N-(1-(4-(5-(4-(1-((1-(4-(2,4-dioxotetrahydropyrimidin-1(2H)-yl)phenyl)piperidin-4-yl)methyl)-4-methylpiperidin-4-yl)phenyl)-1H-pyrazolo[3,4-b]pyridin-3-yl)-2-methylphenyl)ethyl)-1,2,4-oxadiazole-3-carboxamide] came in with a DC50 of 5.98 nM. Compound `Cc1cc(-c2n[nH]c3ncc(-c4ccc(C5(C)CCN(C6CC(c7ccc(C8CCC(=O)NC8=O)cc7)C6)CC5)cc4)cc23)ccc1[C@@H](C)NC(=O)c1noc(C(C)(C)C)n1` (stereo partly drawn) [Example 211, 5-(tert-butyl)-N-((1R)-1-(4-(5-(4-(1-(3-(4-(2,6-dioxopiperidin-3-yl)phenyl)cyclobutyl)-4-methylpiperidin-4-yl)phenyl)-1H-pyrazolo[3,4-b]pyridin-3-yl)-2-methylphenyl)ethyl)-1,2,4-oxadiazole-3-carboxamide] came in with a DC50 of 13.5 nM.
